Measured values from US20230109833A1, “METABOLICALLY STABLE N-ACYLAMINOOXADIAZOLES USEFUL AS ANTIBACTERIAL AGENTS” (MICROBIOTIX, INC., priority 2017, published 2023).
≈ marks a conversion by molar mass, not a printed value.

How the values were obtained:
Imidazoline I2, Central = assay type: binding; details: rat; 10 μM compound; Hit Profile Panel
Histamine, H1 = Histamine, H1 (Homo sapiens, UniProt P35367); assay type: binding; details: 10 μM compound, Hit Profile Panel
Potassium Channel hERG = Potassium Channel hERG (Homo sapiens, UniProt Q12809); details: 10 µM
[1] = Single dose PK (IV and PO); assay type: in vivo; details: mice, 10 mg/kg PO
Sodium Channel, Site 2 = assay type: binding; details: rat; 10 μM compound; Hit Profile Panel
Tolerability studies = assay type: in vivo; details: data not shown
CYP3A4 = molecular target: T1, CYP3A4 (Homo sapiens, UniProt P08684); experiment: CYP450 inhibition; assay type: biochemical; details: 10 μM compound, Hit Profile Panel; for inhibition at 10 µM: read-out: % Inhibition, CYP450, 3A4
T1 construct: purchased BD Gentest Corp., Woburn, Mass
Procedure: (§1) Because inhibition of cytochrome P450 (CYP450) enzymes in vitro is predictive of potential drug interactions in vivo, CYP450 inhibition was measured using commercially available Human Cytochrome P450 kits (BD Gentest Corp., Woburn, Mass.) for the major CYP450s: CYP3A4 and CYP2D6. The assays were performed according to the manufacturer's instructions.

CYP2D6 = molecular target: T2, CYP2D6 (Homo sapiens, UniProt P10635); experiment: CYP450 inhibition; assay type: biochemical; details: 10 μM compound, Hit Profile Panel; for inhibition at 10 µM: read-out: % Inhibition, CYP450, 2D6
T2 construct: purchased BD Gentest Corp., Woburn, Mass
Procedure: as §1

Muscarinic M2 = molecular target: T3, Muscarinic M2 (Homo sapiens, UniProt P08172); assay type: binding; details: 10 μM compound, Hit Profile Panel
T3 sequence (P08172 1-466): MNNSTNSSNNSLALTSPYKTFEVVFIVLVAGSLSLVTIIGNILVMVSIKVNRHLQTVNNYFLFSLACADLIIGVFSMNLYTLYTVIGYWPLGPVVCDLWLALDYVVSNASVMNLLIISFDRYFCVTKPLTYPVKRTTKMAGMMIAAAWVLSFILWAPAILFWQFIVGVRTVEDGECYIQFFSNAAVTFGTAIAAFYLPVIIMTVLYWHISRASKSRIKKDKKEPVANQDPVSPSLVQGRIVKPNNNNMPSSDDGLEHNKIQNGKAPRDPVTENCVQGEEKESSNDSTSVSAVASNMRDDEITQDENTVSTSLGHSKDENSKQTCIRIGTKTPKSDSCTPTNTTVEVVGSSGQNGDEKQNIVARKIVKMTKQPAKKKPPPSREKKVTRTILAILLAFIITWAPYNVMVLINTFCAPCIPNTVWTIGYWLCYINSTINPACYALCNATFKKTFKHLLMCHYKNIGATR

Adrenergic α2A = molecular target: T4, Adrenergic α2A (Homo sapiens, UniProt P08913); assay type: binding; details: 10 μM compound, Hit Profile Panel
T4 sequence (P08913 1-465): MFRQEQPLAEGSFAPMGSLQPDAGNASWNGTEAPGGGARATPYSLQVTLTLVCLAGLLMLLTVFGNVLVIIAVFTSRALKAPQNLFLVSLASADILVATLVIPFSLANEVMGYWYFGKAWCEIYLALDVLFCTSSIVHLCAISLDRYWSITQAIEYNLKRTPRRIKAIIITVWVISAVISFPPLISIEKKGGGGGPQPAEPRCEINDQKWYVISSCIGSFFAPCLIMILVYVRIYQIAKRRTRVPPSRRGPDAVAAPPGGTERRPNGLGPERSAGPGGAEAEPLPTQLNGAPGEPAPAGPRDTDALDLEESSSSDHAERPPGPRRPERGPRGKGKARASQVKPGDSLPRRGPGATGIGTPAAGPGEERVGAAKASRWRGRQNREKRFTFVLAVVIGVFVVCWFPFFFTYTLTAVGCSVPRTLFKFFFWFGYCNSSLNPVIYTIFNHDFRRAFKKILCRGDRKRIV

CYP450, 1A2 = CYP450, 1A2 (Homo sapiens, UniProt P05177); details: 10 µM
[2] = tested on: Calcium Channel L-type, Dihydropyridine; assay type: binding; details: rat; 10 μM compound; Hit Profile Panel
CYP450, 2C9 = CYP450, 2C9 (Homo sapiens, UniProt P11712); details: 10 µM
Adrenergic β1 = Adrenergic β1 (Homo sapiens, UniProt P08588); assay type: binding; details: 10 μM compound, Hit Profile Panel
[3] = molecular target: Nicotinic Acetylcholine a1, Bungarotoxin (Homo sapiens, UniProt P02708+P07510+Q07001); assay type: binding; details: for inhibition at 10 µM: read-out: % Inhibition, Nicotinic Acetylcholine a1, Bungarotoxin
CYP450, 2C19 = CYP450, 2C19 (Homo sapiens, UniProt P33261); details: 10 µM
[4] = tested on: MRSA strain BAA-1717 (TCH1516; USA300); experiment: Murine efficacy, neutropenic thigh model; assay type: in vivo, mouse; details: 25 mg/kg PO once 2 h after infection; CFU 24 hrs post dosage; compared to untreated controls
36 mammalian receptors = assay type: binding; details: 10 μM; every receptor of the panel
CYP2C9 = CYP2C9 (Homo sapiens, UniProt P11712)
CYP2C19 = CYP2C19 (Homo sapiens, UniProt P33261)
hERG potassium channel = hERG potassium channel (Homo sapiens, UniProt Q12809)
CYP1A2 = CYP1A2 (Homo sapiens, UniProt P05177)
N. gonorrhoeae = experiment: MIC (Table 2B); assay type: cell-based; details: Neisseria gonorrhoeae; Table 2B, strain not given; read-out: N. gonorrhoeae MIC

Sequence of Histamine, H1 (P35367 whole entry): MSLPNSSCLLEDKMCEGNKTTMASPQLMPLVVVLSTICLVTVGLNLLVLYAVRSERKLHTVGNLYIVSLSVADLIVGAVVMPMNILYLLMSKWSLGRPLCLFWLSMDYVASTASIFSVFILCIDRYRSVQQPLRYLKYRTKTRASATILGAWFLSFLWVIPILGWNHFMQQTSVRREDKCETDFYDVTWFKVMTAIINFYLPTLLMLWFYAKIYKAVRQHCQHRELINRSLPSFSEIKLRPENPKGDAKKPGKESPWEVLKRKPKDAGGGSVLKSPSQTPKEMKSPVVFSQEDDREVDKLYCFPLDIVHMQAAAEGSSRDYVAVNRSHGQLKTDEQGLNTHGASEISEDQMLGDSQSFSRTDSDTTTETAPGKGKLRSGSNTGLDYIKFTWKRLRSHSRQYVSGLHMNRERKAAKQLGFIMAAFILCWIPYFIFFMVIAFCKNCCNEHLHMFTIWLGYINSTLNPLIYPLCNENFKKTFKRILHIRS
Sequence of Nicotinic Acetylcholine a1, Bungarotoxin (P02708 21-457): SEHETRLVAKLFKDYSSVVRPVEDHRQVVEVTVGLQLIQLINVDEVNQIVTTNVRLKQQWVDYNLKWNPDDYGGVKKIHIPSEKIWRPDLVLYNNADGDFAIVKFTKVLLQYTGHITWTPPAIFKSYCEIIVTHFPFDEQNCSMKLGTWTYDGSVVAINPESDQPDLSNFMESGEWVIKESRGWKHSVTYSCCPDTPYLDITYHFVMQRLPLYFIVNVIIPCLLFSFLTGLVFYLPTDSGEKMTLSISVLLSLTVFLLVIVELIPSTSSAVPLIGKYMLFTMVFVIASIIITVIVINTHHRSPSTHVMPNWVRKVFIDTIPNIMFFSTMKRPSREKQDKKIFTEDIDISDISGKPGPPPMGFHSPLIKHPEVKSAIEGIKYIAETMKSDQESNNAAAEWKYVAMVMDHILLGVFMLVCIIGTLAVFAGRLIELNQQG
Sequence of Nicotinic Acetylcholine a1, Bungarotoxin (P07510 23-517): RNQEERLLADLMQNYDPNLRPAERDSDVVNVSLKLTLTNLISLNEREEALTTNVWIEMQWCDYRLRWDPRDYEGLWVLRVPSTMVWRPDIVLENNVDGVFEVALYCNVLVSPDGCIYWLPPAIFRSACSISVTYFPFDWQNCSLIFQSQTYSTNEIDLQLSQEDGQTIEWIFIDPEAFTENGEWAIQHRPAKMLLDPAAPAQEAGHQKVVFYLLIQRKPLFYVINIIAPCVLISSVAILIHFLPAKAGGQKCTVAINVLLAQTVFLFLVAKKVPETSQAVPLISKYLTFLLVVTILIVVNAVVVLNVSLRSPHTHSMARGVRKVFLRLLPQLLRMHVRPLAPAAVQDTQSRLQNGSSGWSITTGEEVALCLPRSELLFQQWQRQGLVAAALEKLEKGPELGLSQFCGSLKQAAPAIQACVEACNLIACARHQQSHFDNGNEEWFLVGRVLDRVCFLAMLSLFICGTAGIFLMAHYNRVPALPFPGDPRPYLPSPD
Sequence of Nicotinic Acetylcholine a1, Bungarotoxin (Q07001 22-517): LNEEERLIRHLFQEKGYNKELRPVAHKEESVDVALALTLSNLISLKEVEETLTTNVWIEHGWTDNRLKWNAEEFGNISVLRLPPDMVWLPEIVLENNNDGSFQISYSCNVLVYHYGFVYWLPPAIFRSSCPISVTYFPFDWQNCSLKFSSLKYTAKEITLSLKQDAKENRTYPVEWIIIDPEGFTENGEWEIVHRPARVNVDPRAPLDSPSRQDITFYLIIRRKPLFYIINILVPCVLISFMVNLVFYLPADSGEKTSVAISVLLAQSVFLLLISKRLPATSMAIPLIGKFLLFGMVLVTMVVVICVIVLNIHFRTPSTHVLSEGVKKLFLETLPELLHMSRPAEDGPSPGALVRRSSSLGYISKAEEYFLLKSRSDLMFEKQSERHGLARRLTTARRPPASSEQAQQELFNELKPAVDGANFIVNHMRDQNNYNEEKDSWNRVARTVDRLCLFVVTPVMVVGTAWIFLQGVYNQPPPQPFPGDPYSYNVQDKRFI
Sequence of Nicotinic Acetylcholine a1, Bungarotoxin (P11230 24-501, further chain): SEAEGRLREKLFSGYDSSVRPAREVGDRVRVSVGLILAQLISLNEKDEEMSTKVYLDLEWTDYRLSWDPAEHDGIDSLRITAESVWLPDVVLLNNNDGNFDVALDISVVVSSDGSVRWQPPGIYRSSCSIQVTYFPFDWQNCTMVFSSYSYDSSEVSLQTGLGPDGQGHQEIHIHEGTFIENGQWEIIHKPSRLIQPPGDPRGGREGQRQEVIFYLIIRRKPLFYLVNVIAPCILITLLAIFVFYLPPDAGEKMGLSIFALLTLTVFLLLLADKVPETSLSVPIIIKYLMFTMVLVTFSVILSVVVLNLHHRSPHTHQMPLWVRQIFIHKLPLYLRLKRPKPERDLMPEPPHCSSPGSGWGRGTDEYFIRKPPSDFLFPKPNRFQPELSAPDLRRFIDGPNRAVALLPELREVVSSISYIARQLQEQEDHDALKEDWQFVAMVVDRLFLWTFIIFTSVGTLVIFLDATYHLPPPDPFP
T2 sequence (P10635 whole entry): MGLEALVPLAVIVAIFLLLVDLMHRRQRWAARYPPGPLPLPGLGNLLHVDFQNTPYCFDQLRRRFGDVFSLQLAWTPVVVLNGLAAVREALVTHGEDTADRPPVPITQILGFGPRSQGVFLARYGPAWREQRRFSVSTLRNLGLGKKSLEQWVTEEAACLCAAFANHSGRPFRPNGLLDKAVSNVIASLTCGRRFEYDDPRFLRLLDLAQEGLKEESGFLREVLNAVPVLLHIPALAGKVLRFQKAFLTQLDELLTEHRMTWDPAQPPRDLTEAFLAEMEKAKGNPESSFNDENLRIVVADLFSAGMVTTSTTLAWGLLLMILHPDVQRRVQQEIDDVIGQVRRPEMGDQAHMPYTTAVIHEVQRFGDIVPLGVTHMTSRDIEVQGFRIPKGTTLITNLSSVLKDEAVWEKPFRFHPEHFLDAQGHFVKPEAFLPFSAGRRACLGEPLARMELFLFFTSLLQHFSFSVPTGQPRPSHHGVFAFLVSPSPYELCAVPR
Sequence of Adrenergic β1 (P08588 whole entry): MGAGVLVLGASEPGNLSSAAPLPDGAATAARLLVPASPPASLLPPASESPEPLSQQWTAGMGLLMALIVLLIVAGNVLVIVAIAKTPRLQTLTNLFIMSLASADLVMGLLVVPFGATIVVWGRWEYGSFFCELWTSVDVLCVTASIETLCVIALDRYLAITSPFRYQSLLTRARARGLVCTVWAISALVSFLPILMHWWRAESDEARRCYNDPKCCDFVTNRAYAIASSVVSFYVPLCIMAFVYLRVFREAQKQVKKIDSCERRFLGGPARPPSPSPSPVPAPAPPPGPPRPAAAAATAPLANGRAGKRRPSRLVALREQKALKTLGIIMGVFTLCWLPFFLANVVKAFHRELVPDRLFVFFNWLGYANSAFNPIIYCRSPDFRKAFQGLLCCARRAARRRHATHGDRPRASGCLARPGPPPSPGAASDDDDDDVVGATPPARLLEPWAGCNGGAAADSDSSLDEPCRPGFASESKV
T1 sequence (P08684 whole entry): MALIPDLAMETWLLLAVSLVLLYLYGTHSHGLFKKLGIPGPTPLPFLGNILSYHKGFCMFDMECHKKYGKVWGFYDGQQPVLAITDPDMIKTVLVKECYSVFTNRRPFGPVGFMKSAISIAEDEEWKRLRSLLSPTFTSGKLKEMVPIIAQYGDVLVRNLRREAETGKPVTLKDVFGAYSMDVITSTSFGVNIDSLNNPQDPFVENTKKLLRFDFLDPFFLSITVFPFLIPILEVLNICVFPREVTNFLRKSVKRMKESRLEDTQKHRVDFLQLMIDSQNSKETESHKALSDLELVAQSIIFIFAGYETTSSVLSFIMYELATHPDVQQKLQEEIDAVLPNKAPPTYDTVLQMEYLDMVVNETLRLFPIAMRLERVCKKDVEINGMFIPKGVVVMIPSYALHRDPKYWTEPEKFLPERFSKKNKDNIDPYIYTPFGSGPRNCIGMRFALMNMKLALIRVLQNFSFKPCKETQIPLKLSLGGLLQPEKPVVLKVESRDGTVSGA
Sequence of CYP2C19 (P33261 whole entry): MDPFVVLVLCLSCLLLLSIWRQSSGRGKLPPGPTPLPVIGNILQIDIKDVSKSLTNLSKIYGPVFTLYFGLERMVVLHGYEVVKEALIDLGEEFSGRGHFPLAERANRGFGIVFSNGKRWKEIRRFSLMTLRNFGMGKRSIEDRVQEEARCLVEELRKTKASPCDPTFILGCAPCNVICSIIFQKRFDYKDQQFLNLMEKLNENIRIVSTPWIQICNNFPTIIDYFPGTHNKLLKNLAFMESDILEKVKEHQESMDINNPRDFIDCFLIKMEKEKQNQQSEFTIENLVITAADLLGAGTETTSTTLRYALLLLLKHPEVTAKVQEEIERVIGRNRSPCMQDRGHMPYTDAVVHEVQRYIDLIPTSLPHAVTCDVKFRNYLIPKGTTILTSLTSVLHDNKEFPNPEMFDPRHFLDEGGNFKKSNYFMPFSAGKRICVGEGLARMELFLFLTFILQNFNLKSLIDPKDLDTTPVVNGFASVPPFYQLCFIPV
Sequence of CYP2C9 (P11712 whole entry): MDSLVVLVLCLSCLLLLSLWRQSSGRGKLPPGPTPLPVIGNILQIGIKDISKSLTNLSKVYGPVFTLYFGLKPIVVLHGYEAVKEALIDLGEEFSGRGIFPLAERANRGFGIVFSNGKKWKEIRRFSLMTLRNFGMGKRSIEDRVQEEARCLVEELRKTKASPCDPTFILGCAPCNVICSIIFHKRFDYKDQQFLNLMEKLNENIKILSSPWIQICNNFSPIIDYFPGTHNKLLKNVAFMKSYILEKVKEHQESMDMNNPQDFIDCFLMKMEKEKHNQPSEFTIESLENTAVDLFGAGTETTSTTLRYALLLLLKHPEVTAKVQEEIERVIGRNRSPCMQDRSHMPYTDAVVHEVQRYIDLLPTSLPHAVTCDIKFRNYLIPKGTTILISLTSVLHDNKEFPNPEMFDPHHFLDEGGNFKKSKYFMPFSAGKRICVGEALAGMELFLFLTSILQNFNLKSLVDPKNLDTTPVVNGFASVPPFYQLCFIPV

| Compound | % Inhibition, Imidazoline I2, Central (Imidazoline I2, Central) | % Inhibition, Sodium Channel, Site 2 (Sodium Channel, Site 2) | % Inhibition, Calcium Channel L-type, Dihydropyridine [2] | inhibition at 10 µM (Histamine, H1) | inhibition at 10 µM (CYP3A4) | inhibition at 10 µM (CYP2D6) | inhibition at 10 µM (CYP2C9) | inhibition at 10 µM (Muscarinic M2) | inhibition at 10 µM (Adrenergic α2A) | inhibition at 10 µM (CYP2C19) | inhibition at 10 µM (Adrenergic β1) | inhibition at 10 µM (hERG potassium channel) | inhibition at 10 µM (CYP1A2) | inhibition at 10 µM [3] | other results |
| --- | --- | --- | --- | --- | --- | --- | --- | --- | --- | --- | --- | --- | --- | --- | --- |
| O=C(Nc1nnc(-c2ccc(F)cc2)o1)N1CCc2ccccc2C1 [MBX-4132] | 33% | 4% | 15% |  |  |  |  |  |  |  |  |  |  |  | % Inhibition, Histamine, H1 (Histamine, H1): 17%; % Inhibition, Potassium Channel hERG (Potassium Channel hERG): 64%; bioavailability, available from oral dosing [1]: > 75%; elevated single dose tolerability (Tolerability studies; 100 mg/kg, PO, observed 24 h): no effects distinct from vehicle controls; multidose tolerability (Tolerability studies; seven days of dosing at 25 mg/kg, SC, BID, observed 10 days): no effects distinct from vehicle controls; % Inhibition, CYP450, 3A4 (CYP3A4): 7%; % Inhibition, CYP450, 2D6 (CYP2D6): 10%; % Inhibition, Muscarinic M2 (Muscarinic M2): 13%; % Inhibition, Adrenergic α2A (Adrenergic α2A): 54%; % Inhibition, CYP450, 1A2 (CYP450, 1A2): 9%; % Inhibition, CYP450, 2C9 (CYP450, 2C9): 10%; % Inhibition, Adrenergic β1 (Adrenergic β1): −10%; % Inhibition, Nicotinic Acetylcholine a1, Bungarotoxin ([3]; human, 10 μM compound, Hit Profile Panel): 0%; % Inhibition, CYP450, 2C19 (CYP450, 2C19): 44%; drop in CFU/g [4]: > 2 log |
| O=C(Nc1nnc(-c2ccc(F)cc2)o1)N1CC=C(C(F)(F)F)CC1 [compound 4347] | −5% | −5% | 16% | 22% | 9% | 9% | 4% | 2% | 9% | 8% | 3% | 0% | 2% | 2% | inhibition of the 36 mammalian receptors (36 mammalian receptors): < 50% |
| O=C(Nc1nnc(-c2ccc(F)cc2)o1)c1ccc(OC2CCCCC2)cc1 [compound 4292] | 10% | −2% | 23% | -8% | 4% | 2% | 10% | 0% | 3% | 9% | 3% | 8% | 5% | -4% | MIC (N. gonorrhoeae): 0.09 µg/mL (≈ 0.236 µM) |
